This assay has as its system 20S core particle (20S CP) of the proteasome. Briefly: FRET peptide reporter hydrolysis, single concentration. The assay is classed as biochemical, Homo sapiens. As to conditions: stimulator (activation); site unknown.

For the molecule `C[C@H]1[C@H](C)CC[C@]2(C(=O)O)CC[C@]3(C)C(=CC[C@@H]4[C@@]5(C)CC[C@H](O)C(C)(C)[C@@H]5CC[C@]43C)[C@H]12` [UA, ursolic acid], the “% stimulation over control at 25 μM” value turned out to be 215%.

The values above are taken from paper PMC8341874 (RSC Chemical Biology, 2021).
